Assay results published in US9376415B2, “Tricyclic condensed heterocyclic compound, process of producing same, and use thereof” (NIPPON SUISAN KAISHA, LTD., priority 2009, dated 2016).

Experiments:
Assay type in all cases: cell-based
[1] = test system: NCI-H460; assay: Cell growth inhibitory activity (Almar Blue), NCI-H460; settings: Homo sapiens; NCI-H460 cancer cells, cultured for 72 hours
Description: (§1) The cell growth inhibitory activity of Compound 1 was evaluated using 4 types of cancer cells. The cancer cells used were human cancer cells (HT-29, A431, NCI-H460, […]). Compound 1 was dissolved in DMSO. One hundred […] of a suspension of cancer cells was charged in each 96 well micro plate (1.0 to 3.0×10^3 cells/well). After 24 hours, each of solutions of Compounds 1 to 6 was added in an amount of 2 ml to 100 ml of culture fluid to give final concentrations of […] and cultured for 72 hours. Thereafter, 20 ml of an Almar Blue reagent was added to each solution, followed by culturing for 6 hours.

[2] = test system: HT-29; assay: Cell growth inhibitory activity (Almar Blue), HT-29; settings: Homo sapiens; HT-29 cancer cells, cultured for 72 hours
Description: as §1
The cell growth inhibitory activity of Compound 6 was evaluated using cancer cells (HT-29). The method for the evaluation was the same as the method by which Compound 1 was evaluated.

[3] = test system: U937; assay: Cell growth inhibitory activity (Almar Blue), U937; settings: Homo sapiens, U-937; U937 cancer cells, cultured for 72 hours
Description: as §1

[4] = test system: PC-3; assay: Cell growth inhibitory activity (Almar Blue), PC-3; settings: Homo sapiens; PC-3 cancer cells, cultured for 72 hours

Row | SMILES | IC50 [1] | IC50 [2] | IC50 [3] | IC50 [4]
1 | C/C=C(/C)C1OC2C(C)=CC(C)(/C=C/C(=O)O)C3C(C)=CC1(C)C23C (centres unmarked) [Compound 1] | 580 nM | 590 nM | 1100 nM | 820 nM
2 | C=C1C(O)C(C)(/C=C/C(=O)O)C2C(C)=CC3(C)C(/C(C)=C\C)OC1C23C (centres unmarked) [Compound 6] | – | 310 nM | – | –
